Key:
Format in all cases: in vivo
Malachium aquaticum = test: Composition activity test, post-emergence foliage spray; conditions: B 7.5 g a.i./ha
Method: (§1) are as follows, and the others were purchased from reagent companies. The technical materials were all dissolved in acetone and diluted with an aqueous solution containing 0.1% emulsifier Tween-80. The dilution is performed as required.
(§2) Weeds were cultivated by a pot culture method. […] Full and uniform weed seeds were selected, soaked in warm water at 25° C. for 6 hours, and germinated in a 28° C. biochemical incubator (darkness). The weed seeds that had just germinated were evenly placed on the surface of the soil and then covered with 0.5-1 cm soil according to the sizes of seeds.
(§3) The culture was carried out in a controllable sunlight greenhouse at 20 to 30° C., in natural light, and relative humidity of 57% to 72%.
(§4) 3 pots with 20 weed seeds per pot were treated in one treatment with 4 replications per treatment.
(§5) The agents were used for only once in the experiment. In the stage of weeds with 1.5-2 leaves, the weeds were thinned out to maintain 10 weeds per pot and 30 weeds for each treatment, then continued to be cultured to Conyza Canadensis 10 cm in height, other weeds 3-4 leaves stage and treated.
(§6) The well-cultured weeds were evenly placed on a platform with an area of 0.5 m^2, and a solution of agents was sprayed on the stems and leaves thereof by the 3WP-2000-type walking spray tower at a dosage of 450 kg/ha and at a spray pressure of 0.3 MPa. After all the solution was sprayed, the valve was closed. After 30 seconds, the door of the spray tower was opened, and the nutritional bowl was taken out. Then the valve was opened, and the spray tube was cleaned by spraying 50 ml of water. After the treatment, the weeds were routinely cultured in a greenhouse.
(§7) A method for investigating absolute number was employed, wherein whole seedlings of survival weeds were cut off with a blade along the soil surface, and the fresh weight of the weeds was weighed with an analytical balance. For dead weeds, the fresh weight thereof was zero.
(§8) The investigation was performed after 21 days of the treatment for only once.
(§9) An optimum ratio of the two active ingredients was determined by the actual control effect, characteristics of herbicides, and balance of a corresponding formula. Wherein, in the formula, X represented the fresh weight inhibition rate of the active ingredient A in a dosage of P, and Y represented the fresh weight inhibition rate of the active ingredient B in a dosage of Q. The statistical results were shown in the table 6.

Rice = test: Transplanted rice safety evaluation; conditions: transplanted japonica rice, 30 g/ha, 21 days after treatment
Method: (§10) The activity level criteria for plant damage (i.e., growth control rate) are as follows:
In addition, the rice field soil that loaded into the 1/1,000,000 ha pot was leveled to keep water storage at 3-4 cm depth. The 5 leaf stage rice (japonica rice) was transplanted at 3 cm of transplanting depth the next day. The compound of the present invention was treated by the same way after 5 days of transplantation.
(§11) The fertility condition of Echinochloa crusgalli. Scirpus juncoides. Bidens tripartita L., Monochoria vaginalis, Leptochloa chinensis and Sagittaria trifolia 14 days after the treatment of the compound of the invention and the fertility condition of rice 21 days after the treatment of the compound of the invention respectively with the naked eye. Evaluate the weed control effect with the above activity standard level. Many compounds show excellent activity and selectivity.

Scirpus juncoides = test: Weed control effect evaluation in rice field; conditions: rice field pot, 30 g/ha, 14 days after treatment
Source text: as §10
(§12) Rice field soil was loaded into a 1/1,000,000 ha pot. The seeds of Echinochloa crusgalli. Scirpus juncoides. Bidens tripartita L., Monochoria vaginalis, and Leptochloa chinensis were sowed and gently covered with soil, then left to stand still in greenhouse in the state of 0.5-1 cm of water storage. The tuber of Sagittaria trifolia was planted in the next day or 2 days later. It was kept at 3-4 cm of water storage thereafter. The weeds were treated by dripping the WP or SC water diluents prepared according to the common preparation method of the compounds of the present invention with pipette homogeneously to achieve specified effective amount when Echinochloa crusgalli. Scirpus juncoides, Bidens tripartita L., Monochoria vaginalis, and Leptochloa chinensis reached 0.5 leaf stage and Sagittaria trifolia reached the time point of primary leaf stage.
as §11

Leptochloa chinensis = test: Weed control effect evaluation in rice field; conditions: rice field pot, 30 g/ha, 14 days after treatment
Source text: as §10, §12, §11

Monochoria vaginalis = test: Weed control effect evaluation in rice field; conditions: rice field pot, 30 g/ha, 14 days after treatment
Source text: as §10, §12, §11

[1] = test system: Echinochloa caudata Roshev.; test: Composition activity test, post-emergence foliage spray
Method: as §1, §2, §3, §4, §5, §6, §7, §8, §9

With `CCOC(=O)c1cnn(C)c1S(=O)(=O)NC(=O)Nc1nc(OC)cc(OC)n1` [pyrazosulfuron-ethyl, reference compound] the “Control effect (%) of B applied alone (B)” value (shortened to “Control effect (%)”) (Malachium aquaticum) was 35.7%, the “plant damage level Rice” value (Rice) was 1 (Level 1: growth control rate is greater than or equal to 5% and less than 20%) and the “activity level (weed control effect) Scirpus juncoides” value (Scirpus juncoides) was 1 (Level 1: growth control rate is greater than or equal to 5% and less than 20%). For the same molecule, the “activity level (weed control effect) Leptochloa chinensis” value (Leptochloa chinensis) was 2 (Level 2: growth control rate is greater than or equal to 20% and less than 40%) and the “activity level (weed control effect) Monochoria vaginalis” value (Monochoria vaginalis) was 2 (Level 2: growth control rate is greater than or equal to 20% and less than 40%).
With `Cc1nn(C)cc1C(=O)Oc1c(C(=O)c2ccc(C(F)(F)F)cc2S(C)(=O)=O)c(C)nn1C` [shuangzuocaotong] the “Control effect (%)” value ([1]; B 15 g a.i./ha) was 35.9%.
In the case of `CS(=O)(=O)c1ccc(C(=O)C2C(=O)CCCC2=O)c(Cl)c1COCC1CCCO1` (stereo not drawn) [tefuryltrione], the “Control effect (%)” value ([1]; B 30 g a.i./ha) was 21.5%.
`CS(=O)(=O)c1ccc(C(=O)C2C(=O)CCCC2=O)c(Cl)c1COCC(F)(F)F` [tembotrione] was tested, and the “Control effect (%)” value ([1]; B 15 g a.i./ha) was 31.7%.
In the case of `Cc1c(C(=O)c2cnn(C)c2O)ccc(S(C)(=O)=O)c1C1=NOCC1` [topramezone], the “Control effect (%)” value ([1]; B 7.5 g a.i./ha) was 38.5%.

From patent US20230111310A1, “CARBOXYLIC ACID DERIVATIVE-SUBSTITUTED IMINO ARYL COMPOUND, PREPARATION METHOD THEREFOR, HERBICIDAL COMPOSITION AND USE THEREOF” (Qingdao Kingagroot Chemical Compound Co., Ltd., priority 2020, published 2023)
